Source: patent publication US20260284003A1, “COMPOSITIONS AND METHOD FOR MANAGEMENT OF PAIN AND ALLERGY” (priority 2023, published 2026)

Legend:
[1] = test system: Human epidermal keratinocyte cells (HaCaT); test: Inhibition of intracellular calcium (H2O2 stimulated, Fluo-8AM); assay type: cell-based; details: samples pre-treated 2 hours, 10 mM H2O2 30 mins, FIG. 1A-1D, combination ratio 1:1:0.3
Procedure: Various environmental stimuli or neurotransmitters often cause changes in intracellular calcium concentration in the skin. Keratinocytes, primary cell type found in the outermost layer of the skin. Epidermal keratinocytes express functional sensory receptors, such as TRPV1, TRPV3, and TRPV4. Pain stimulus increases intracellular calcium through TRPV channels. Hydrogen peroxide mediated calcium stimulation was tested. Human epidermal keratinocyte cells (HaCaT) (5×10^4) were seeded in 96 black well plate for overnight. Samples were Pre-treated for 2 hours in 1% DMEM. Cells were stimulated with 10 mM H2O2 for 30 mins, and Fluo-8AM dye was added (HBBS buffer) for 1 hr. After incubation, cells were washed with PBS twice and the fluorescence was measured at the Ex/Em of 485/520 nm.

[2] = test system: IL-6; test: Inhibition of IL-6 in LPS induced RAW 264.7 macrophages (ELISA); details: RAW 264.7, LPS 100 ng/mL; FIG. 3A-3D
Procedure: (§2) Mouse macrophage cell line (RAW264.7) was purchased from National Center for Cell Science (NCCS, Pune, India) and maintained as a monolayer culture in Dulbecco's modified minimal essential medium (DMEM, Life Technologies, CA, USA) supplemented with 10% (v/v) fetal bovine serum (FBS; GIBCO/Invitrogen, Carlsbad, CA) at 37° C. in a humidified 5% CO2 incubator.
RAW 264.7 (5×10^5 cells/well) macrophage cells were induced with LPS (100 ng/mL) along with or without different concentrations of Samples. The supernatants were used for IL6 estimation using ELISA kits as per the manufacturer's instruction (R&D Systems, Minneapolis, Minnesota, USA).

[3] = test system: Ovalbumin Induced Respiratory Allergy; test: Organ weight determination, ovalbumin induced respiratory allergy; assay type: in vivo, BALB/c mice; details: for organ weight (in words): compared OVA control, FIG. 10, Table 5; for Organ weight, Spleen / Organ weight, Lungs: mean, BCP 10 mg/kg, PEA 3 mg/kg, BPE 10 mg/kg, BPB 30 mg/kg oral 5 days; for Organ weight, Spleen: control 0.26, OVA 0.80; for Organ weight, Lungs: control 0.65, OVA 1.08
Source text: It is widely known that lungs and spleen weight increase during allergy.

[4] = test system: Mouse mast cells P815; test: Inhibition of histamine release from C48/80 activated mast cells; assay type: cell-based; details: P815, 80 μg/ml C48/80, 30 min; FIG. 4A-4D
Procedure: Reaction was terminated by placing the cells on ice for 10 mins and centrifuged for 5 minutes at 2400 rpm. 100 μL of cell supernatant was mixed with 50 μL of 4N NaOH and 10 μL of O-Phthaldialdehyde (OPT, 1 mg·mL-1 in methanol, Sigma). By incubation at room temperature for 10 min, 50 μL of 1N HCl was added to stop the reaction. The fluorescence was measured at Ex/Em of 390/460 nm using a microplate reader (FLOUSTAR).

[5] = test system: inducible nitric oxide; test: Inhibition of inducible nitric oxide (Griess reaction); details: macrophages, nitrite in cell supernatant; FIG. 2A-2C
Procedure: as §2
The Nitrite estimation was carried out using the Griess reaction. To the 50 μL of cell supernatant, Griess reagent I (50 μL) and Griess reagent II (50 μL) were added and incubated for 10 min at room temperature and absorbance were read at 540 nm using Microplate reader.

[6] = test system: Ovalbumin Induced Respiratory Allergy; test: Bronchoalveolar lavage fluid (BALF) cell count, ovalbumin induced respiratory allergy; details: BCP 10, PEA 3, BPE 10, BPB 30 mg/kg; for Differential Count, PMN - E / Differential Count, PMN - N / Differential Count, Lymphocytes / Differential Count, Macrophages: BALF; for Differential Count, PMN - E: eosinophil, control 0.50, OVA 1.67; for Differential Count, PMN - N: neutrophil, control 1.00, OVA 5.33; for Differential Count, Lymphocytes: control 1.83, OVA 12.00; for Differential Count, Macrophages: control 3.33, OVA 25.17; for Cellular Count (total cell count of BALF): control 6.93, OVA 44.17
Procedure: BALB/c mice (20-30 g body weight) were housed under standard laboratory conditions (temperature 23.5° C., humidity=58-64%), with 12 h light and 12 h dark cycle, fed with normal diet and water ad libitum.
(§3) Control animals were administered with 2% Gum acacia in PBS. All the animals except in Group I were actively sensitized by an intraperitoneal (i.p.) injection of OVA (20 μg/kg body weight) and Aluminum hydroxide (2 mg/kg body weight) in PBS on 0 and 14th day and were challenged with 1% OVA in PBS on 21st, 22nd, and 23rd using Nebulizer for 1 hour. The treatment drugs and standard drug were administered orally for 5 days (18th to 23rd day).
On day 25, 48 h after final OVA challenge (saline challenge for normal control group), the animals were anesthetized for collection of blood and Bronchoalveolar Lavage (BAL) fluid for biochemical evaluation.
On the day of sacrifice mice were anesthetized, the lungs were gently lavaged three times via the tracheal tube with a volume of 0.7 ml phosphate buffered saline (PBS). BALF was immediately centrifuged at 1500 rpm for 5 min, and the collected supernatant was stored at −70° C. until further analysis. The cell pellet was analysed to determine the total cell count of BALF (Table 9, FIG. 14) and the count of Macrophages, neutrophil, eosinophil, and lymphocyte (Table 10, FIG. 15) counts using a hematology analyzer in BALF fluids.

[7] = test system: Interleukin-1β (IL-1β); test: IL-1β in spinal fluids, cisplatin induced peripheral neuropathy (ELISA); details: cisplatin mice, oral 21 days, FIG. 6
Procedure: (§4) As an illustrative example to evaluate the effect of the composition on reducing pain, in-vivo experiments were carried out in Cisplatin induced peripheral neuropathy animal models.
(§5) In the present study, these were estimated in the spinal fluids of the animals using ELISA kits as per the manufacturer's instruction (R&D Systems, Minneapolis, Minnesota, USA).

[8] = test system: COX-2; test: COX-2 expression in spinal tissue lysate (Western blotting); assay type: in vivo, C57BL/6 mice; details: normalized to GAPDH, cisplatin = 1, control 0.7, BCP 10 mg, PEA 5 mg, BPE 10 mg, BPB 15 mg, Ibuprofen 30 mg, oral 21 days
Procedure: (§1) In the current study, TRPV1 and COX-2 expression was assessed in the spinal tissue lysate of the animals, using Western blotting. Briefly, proteins from the spinal tissue were separated in a 10% SDS-PAGE and transferred to PVDF membrane. The TRPV1 and COX-2 expressions were probed using specific monoclonal antibodies (ABclonal, Dusseldorf, Germany). GAPDH was used as housekeeping gene control. The expression of TRPV1 and COX-2 were normalized to that of GAPDH, and fold change was calculated w.r.t cisplatin group.

[9] = test system: TRPV1; test: TRPV1 expression in spinal tissue lysate (Western blotting); assay type: in vivo, C57BL/6 mice; details: normalized to GAPDH, cisplatin = 1, control 0.3, BCP 10 mg, PEA 5 mg, BPE 10 mg, BPB 15 mg, Ibuprofen 30 mg, oral 21 days
Procedure: as §1

[10] = test system: Cisplatin induced peripheral neuropathy animal models; test: Hot plate test, cisplatin induced peripheral neuropathy; assay type: in vivo, C57BL/6 mice; details: reaction latency, 52° C.; BCP 10 mg, PEA 5 mg, BPE 10 mg, BPB 15 mg, Ibuprofen 30 mg
Procedure: Animals are placed on the hot plate one at a time. Latency to respond to the heat stimulus is measured by the amount of time it takes for the animal to lick one of its paws. Animals were placed on a hot-plate apparatus. In order to measure thermal pain, the temperature of the hot plate surface was set to 52° C. The reaction latency as well as the time between when the animals were placed and the onset of paw-licking or jumping behaviors were measured in seconds(s). To minimize tissue damage, a cut-off time of 40 s was adopted (Moureq et al. Alleviation of cisplatin-induced neuropathic pain, neuronal apoptosis, and systemic inflammation in mice by rapamycin., Frontiers in Aging Neuroscience., 14, 2022).

[11] = test system: Ovalbumin Induced Respiratory Allergy; test: Evaluation of nasal symptoms, ovalbumin induced respiratory allergy; details: BCP 10, PEA 3, BPE 10, BPB 30 mg/kg; for Nasal Redness Score: score 0—normal, 1—faint, 2—medium, 3—dark
Procedure: BALB/c mice (20-30 g body weight) were housed under standard laboratory conditions (temperature 23.5° C., humidity=58-64%), with 12 h light and 12 h dark cycle, fed with normal diet and water ad libitum. […] The number of animals used in each group is 6.
as §3
On day 21, 22 and 23 nasal symptoms were evaluated within a 10-minute period after the OVA challenge. […] Sneezing is characterized by an explosive expiration just after a deep inspiration and nose rubbing is characterized by an external perinasal scratch with either one or both forelimbs of animal. Another parameter that was evaluated was redness of the nose (FIG. 13) was by observing the intensity in redness of nostrils and scoring them as the following: 0—normal, 1—faint, 2—medium, and 3—dark.

[12] = test system: tumor necrosis factor-α (TNF-α); test: TNF-α in spinal fluids, cisplatin induced peripheral neuropathy (ELISA); details: cisplatin mice, oral 21 days, FIG. 5
Procedure: as §4, §5

[13] = test system: Cisplatin induced peripheral neuropathy animal models; test: Tail-flick test, cisplatin induced peripheral neuropathy; assay type: in vivo, C57BL/6 mice; details: tail withdrawal latency; BCP 10 mg, PEA 5 mg, BPE 10 mg, BPB 15 mg, Ibuprofen 30 mg
Procedure: This is a test of acute nociception in which a high-intensity thermal stimulus is directed to the tail of a mouse or a rat. The time from onset of stimulation to a rapid flick/withdrawal of the tail from heat source is recorded. Thermal (radiant heat) sensation of animal tail part was assessed by observation of tail flick response as per D'Aemour and Smith method with minor modifications (Hargreaves et al. A new and sensitive method for measuring thermal nociception in cutaneous hyperalgesia. Pain 32 (1988) 77-88). The one-centimeter distance from the tail terminal region was located on the slit of the plantar device. Thermal sensitivity of mice tail was recorded as tail withdrawal latency. Brisk withdrawal of tail from the plantar device was considered as a progression of neuropathic pain. Cut-off stimuli, i.e., 15 s was maintained to avoid potential tissue damage. Mice were tested after 24 h of treatment injections for the drug-response evaluation.

[14] = day 21, 10-minute period after OVA challenge, OVA 6.00
[15] = day 21, 10-minute period after OVA challenge, OVA 88.67
[16] = day 22, 10-minute period after OVA challenge, OVA 5.50
[17] = day 22, 10-minute period after OVA challenge, OVA 82.17
[18] = day 23, 10-minute period after OVA challenge, OVA 4.00
[19] = day 23, 10-minute period after OVA challenge, OVA 83.17

SMILES	inhibition of intracellular calcium levels [1]	inhibition of IL6 induced by LPS [2]	organ weight (in words) [3]	Organ weight, Spleen [3]	Organ weight, Lungs [3]	inhibition of histamine release from mast cells [4]	Differential Count, PMN - E [6]	Differential Count, PMN - N [6]	Differential Count, Lymphocytes [6]	Differential Count, Macrophages [6]	Cellular Count (total cell count of BALF) [6]	Cox 2 expression (fold change w.r.t cisplatin group) [8]	TRPV1 expression (fold change w.r.t cisplatin group) [9]	Hot plate test Mean Diff., Cisplatin vs. treatment (Tukey's multiple comparisons test) [10]	Number of Sneezing [11, 14]	Nose rubbing [11, 15]	Number of Sneezing [11, 16]	Nose rubbing [11, 17]	Nasal Redness Score ([11]; day 22, OVA 2.17)	Number of Sneezing [11, 18]	other results
C=C1CC/C=C(\C)CC[C@@H]2[C@@H]1CC2(C)C [BCP, β-Caryophyllene]	showed inhibition of intracellular calcium levels	lower activity	showed decrease in organ weight	0.51	0.76	dose dependent inhibition of histamine release from mast cells	1.50	1.50	4.17	11.00	18.17	0.8	0.1	−12.13	3.33	52.83	2.67	51.33	0.67	1.50	inhibition of nitric oxide levels [5]: showed inhibition of nitric oxide levels; inhibition of Interleukin-1β (IL-1β) [7]: showed inhibition; Nose rubbing [11, 19]: 52.83; Nasal Redness Score ([11]; day 23, OVA 1.17): 0.17; inhibition of tumor necrosis factor-α (TNF-α) [12]: showed inhibition; Tail Flick test Mean Diff., Cisplatin vs. treatment (Tukey's multiple comparisons test) [13]: −3.125
CCCCCCCCCCCCCCCC(=O)NCCO [PEA, Palmitoylethanolamide]	showed inhibition of intracellular calcium levels	dose dependent inhibition of IL6 induced by LPS	showed decrease in organ weight	0.50	0.83	lower activity	1.20	1.80	2.80	5.00	10.80	0.3	2.8	−5.958	2.60	66.40	2.80	58.40	1.00	3.00	Nose rubbing [11, 19]: 66.40; Nasal Redness Score ([11]; day 23, OVA 1.17): 0.80; Tail Flick test Mean Diff., Cisplatin vs. treatment (Tukey's multiple comparisons test) [13]: −4.167
